Type in all cases: cell-based
One assay has as its system D Morganii DR 062. Briefly: MIC by agar-dilution technique, Diagnostic Sensitivity Test. The source says: (§1) The pharmaceutically acceptable carbapenem compounds of the present invention are useful antibacterial agents having a broad spectrum of activity in vitro against standard laboratory microorganisms, both Gram-negative and Gram-positive, which are used to screen for activity against pathogenic bacteria. The antibacterial spectrum and potency of a particular compound may be determined in a standard test system. In particular the carbapenems of the present invention show good stability to beta-lactamases and in general particularly good pharmacokinetics, especially as regards half life. In general compounds show significant improvement over imipenem.
(§2) The following results were obtained for representative compounds on a standard in vitro test system using Diagnostic Sensitivity Test. The antibacterial activity is described in terms of the minimum inhibitory concentration (MIC) determined by the agar-dilution technique with an inoculum size of 10^4 CFU/spot.

Assay [1] has as its system Enterobacter cloacae P99+. The assay is described as above.
Excerpt: as §1, §2

The test system of the next assay is S. aureus Oxford. The description is as above. Particulars: Staphylococcus aureus, inoculum 10^4 CFU/spot.
Excerpt: as §1, §2

For another assay, the system named is B. fragilis AMP-R. The description is as above. The following applies: Bacteroides fragilis, inoculum 10^4 CFU/spot.
Excerpt: as §1, §2

Another assay relates to P. morganii I + 001. Described as above. The following applies: Morganella morganii.
Excerpt: as §1, §2

Another assay deals with E. coli DCO. The assay is described as above. Particulars: Escherichia coli, inoculum 10^4 CFU/spot.
Excerpt: as §1, §2

The subject of another assay is B. fragilis AMP-S. Described as above. Particulars: Bacteroides fragilis, inoculum 10^4 CFU/spot.
Excerpt: as §1, §2

Assay [2] concerns Enterobacter cloacae P99-. Briefly: microbe, parasite or virus in culture.
Excerpt: as §1, §2

The mark [3] stands for this setting: D Morganii DR 062, agar-dilution, inoculum 10^4 CFU/spot, read-out: MIC.
Setting [4] is: P. morganii I + 001, agar-dilution, inoculum 10^4 CFU/spot, read-out: MIC.

Seven compounds from patent publication US5541178A, “Carbapenem antibiotic compounds” (Zeneca Limited, priority 1991, dated 1996) can be followed below.

Structures are written as SMILES. Values after ≈ are worked out from the molar mass of the structure shown. Counter-ions that a name gives are not always drawn. Like-named read-outs stand apart in the source and are kept apart here.

On to `C[C@@H](O)[C@H]1C(=O)N2C(C(=O)O)=C(S[C@@H]3CN[C@H](C(=O)Nc4ccc(C(=O)O)cc4O)C3)[C@H](C)[C@H]12` [Example 1, (1R,5S,6S,8R,2'S,4'S)-2-(2-(4-Carboxy-2-hydroxyphenylcarbamoyl)pyrrolidin-4-ylthio)-6-(1-hydroxyethyl)-1-methylcarbapenem-3-carboxylic acid], for which the MIC stood at 0.02 µg/mL (≈ 0.0407 µM) in the assay on D Morganii DR 062 (setting [3]); 0.25 µg/mL (≈ 0.509 µM) in assay [1]; 0.13 µg/mL (≈ 0.264 µM) with S. aureus Oxford; 0.5 µg/mL (≈ 1.02 µM) against B. fragilis AMP-R; 0.02 µg/mL in the assay on P. morganii I + 001 (setting [4]); 0.01 µg/mL (≈ 0.0203 µM) in the assay on E. coli DCO. Besides, the MIC against B. fragilis AMP-S was 0.25 µg/mL (≈ 0.509 µM); in assay [2] it was 0.01 µg/mL (≈ 0.0203 µM).
In the case of `C[C@@H](O)[C@H]1C(=O)N2C(C(=O)O)=C(S[C@@H]3CN[C@H](C(=O)Nc4cc(C(=O)O)ccc4O)C3)[C@H](C)[C@H]12` [Example 2, (1R,5S,6S,8R,2'S,4'S)-2-(2-(5-Carboxy-2-hydroxyphenylcarbamoyl)pyrrolidin-4-ylthio)-6-(1-hydroxyethyl)-1-methylcarbapenem-3-carboxylic acid], the MIC in the assay on D Morganii DR 062 (setting [3]) was 0.06 µg/mL (≈ 0.122 µM); in assay [1], 1 µg/mL (≈ 2.03 µM); in the assay with S. aureus Oxford, 0.13 µg/mL (≈ 0.264 µM); in the assay with P. morganii I + 001 (setting [4]), 0.06 µg/mL; against E. coli DCO it was 0.03 µg/mL (≈ 0.061 µM); with B. fragilis AMP-S it was 0.25 µg/mL (≈ 0.509 µM). In assay [2], this compound registered an MIC of 0.01 µg/mL (≈ 0.0203 µM).
As to `C[C@@H](O)[C@H]1C(=O)N2C(C(=O)O)=C(S[C@@H]3CN[C@H](C(=O)Nc4cccc(C(=O)O)c4C(=O)O)C3)[C@H](C)[C@H]12` [Example 4, (1R,5S,6S,8R,2'S,4'S)-2-(2-(2,3-Dicarboxyphenylcarbamoyl)pyrrolidin-4-ylthio)-6-(1-hydroxyethyl)-1-methylcarbapenem-3-carboxylic acid], the MIC against D Morganii DR 062 was 0.03 µg/mL (≈ 0.0577 µM); in assay [1] it was 1 µg/mL (≈ 1.92 µM); in the assay on S. aureus Oxford, 0.25 µg/mL (≈ 0.481 µM); in the assay on B. fragilis AMP-R, 0.5 µg/mL (≈ 0.962 µM); with P. morganii I + 001, 0.03 µg/mL (≈ 0.0577 µM); with E. coli DCO, 0.02 µg/mL (≈ 0.0385 µM). Besides, the MIC in the assay on B. fragilis AMP-S is 0.13 µg/mL (≈ 0.25 µM); in assay [2] it was 0.01 µg/mL (≈ 0.0192 µM).
Turning to `C[C@@H](O)[C@H]1C(=O)N2C(C(=O)O)=C(S[C@@H]3CN[C@H](C(=O)Nc4ccccc4C(=O)O)C3)[C@H](C)[C@H]12` [Example 5, (1R,5S,6S,8R,2'S,4'S)-2-(2-(2-Carboxyphenylcarbamoyl)pyrrolidin-4-ylthio)-6-(1-hydroxyethyl)-1-methylcarbapenem-3-carboxylic acid], the MIC with D Morganii DR 062 amounted to 0.03 µg/mL (≈ 0.0631 µM); in assay [1], 1 µg/mL (≈ 2.1 µM); in the assay on S. aureus Oxford, 0.06 µg/mL (≈ 0.126 µM); in the assay on B. fragilis AMP-R, 0.25 µg/mL (≈ 0.526 µM); in the assay with P. morganii I + 001, 0.03 µg/mL (≈ 0.0631 µM); with E. coli DCO, 0.03 µg/mL (≈ 0.0631 µM). The values for the MIC (with B. fragilis AMP-S; in assay [2]) were 0.25 µg/mL (≈ 0.526 µM) and 0.06 µg/mL (≈ 0.126 µM), respectively.
As for `C[C@@H](O)[C@H]1C(=O)N2C(C(=O)O)=C(S[C@@H]3CN[C@H](C(=O)Nc4ccc(C(=O)O)cc4C(=O)O)C3)[C@H](C)[C@H]12` [Example 13, (1R,5S,6S,8R,2'S,4'S)-2-(2-(2,4-Dicarboxyphenylcarbamoyl)pyrrolidin-4-ylthio)-6-(1-hydroxyethyl)-1-methylcarbapenem-3-carboxylic acid], the MIC came to 0.02 µg/mL (≈ 0.0385 µM) with D Morganii DR 062 (setting [3]); 2 µg/mL (≈ 3.85 µM) in assay [1]; 0.25 µg/mL (≈ 0.481 µM) with S. aureus Oxford; 0.5 µg/mL (≈ 0.962 µM) in the assay with B. fragilis AMP-R; 0.01 µg/mL in the assay on P. morganii I + 001 (setting [4]); 0.02 µg/mL (≈ 0.0385 µM) in the assay with E. coli DCO. The MIC in the assay on B. fragilis AMP-S worked out at 0.13 µg/mL (≈ 0.25 µM); in assay [2] it was 0.03 µg/mL (≈ 0.0577 µM).
As to `COc1ccc(NC(=O)[C@@H]2C[C@H](SC3=C(C(=O)O)N4C(=O)[C@H]([C@@H](C)O)[C@H]4[C@H]3C)CN2)c(C(=O)O)c1` [Example 31, (1R,5S,6S,8R,2'S,4'S)-2-(2-(2-Carboxy-4-methoxyphenylcarbamoylpyrrolidin-4-ylthiol)-6-(1-hydroxyethyl)-1-methylcarbapenem-3-carboxylic acid, dipotassium salt], the MIC amounted to 0.06 µg/mL in the assay with D Morganii DR 062 (setting [3]); 1 µg/mL in assay [1]; 0.13 µg/mL with S. aureus Oxford; 0.25 µg/mL with B. fragilis AMP-R; 0.03 µg/mL with P. morganii I + 001; 0.02 µg/mL against E. coli DCO. Besides, the results for the MIC (against B. fragilis AMP-S; in assay [2]) were 0.25 µg/mL and 0.03 µg/mL, respectively.
Regarding `CO/N=C(\C(=O)N[C@@H]1C(=O)N2C(C(=O)O)=C(CSc3nc(=O)c(=O)[nH]n3C)CS[C@H]12)c1csc(N)n1` [ceftriaxone, reference compound], the MIC is 1 µg/mL (≈ 1.8 µM) with D Morganii DR 062 (setting [3]); 32 µg/mL (≈ 57.7 µM) in assay [1]; 2 µg/mL (≈ 3.61 µM) with S. aureus Oxford; > 128 µg/mL in the assay on B. fragilis AMP-R; 0.01 µg/mL with P. morganii I + 001 (setting [4]); 0.03 µg/mL (≈ 0.0541 µM) in the assay on E. coli DCO. In addition, the MIC against B. fragilis AMP-S is 2 µg/mL (≈ 3.61 µM); in assay [2], 0.06 µg/mL (≈ 0.108 µM).
